These are literature values, as cited in patent publication US8691803B2, “Process for the preparation of antibiotic compounds” (Savior Lifetec Corporation, priority 2011, dated 2014).

Structures are written as SMILES.

The conditions of the data set: storage; must be stored at a low temperature.

In the case of `C[C@@H](O)[C@H]1C(=O)N2C(C(=O)O)=C(S[C@@H]3CN[C@H](C(=O)Nc4cccc(C(=O)O)c4)C3)[C@H](C)[C@H]12` [ertapenem], the Temperature stability result is “unstable above −20 °C”.
